Source: article PMC4390550 (Journal of the American Chemical Society, 2015)
Counter-ions that a name gives are not always drawn. One block for each compound: values may come before it.

Key:
[1] = tested on: GABA-AT; conditions: aromatization mechanism; cited from earlier work
[2] = tested on: aspartate aminotransferase; conditions: cited from earlier work
[3] = tested on: alanine aminotransferase; conditions: cited from earlier work
[4] = tested on: infantile spasms; conditions: cited from earlier work
[5] = molecular target: T1, GABA-AT (Sus scrofa, UniProt P80147); assay: Time-dependent inhibition; format: biochemical, pig; conditions: preliminary in vitro results
[6] = molecular target: T1, GABA-AT; assay: Inhibition of GABA-AT, coupled assay with SSDH, Ki by Cheng-Prusoff; format: biochemical, pig

T1 sequence (P80147 29-500): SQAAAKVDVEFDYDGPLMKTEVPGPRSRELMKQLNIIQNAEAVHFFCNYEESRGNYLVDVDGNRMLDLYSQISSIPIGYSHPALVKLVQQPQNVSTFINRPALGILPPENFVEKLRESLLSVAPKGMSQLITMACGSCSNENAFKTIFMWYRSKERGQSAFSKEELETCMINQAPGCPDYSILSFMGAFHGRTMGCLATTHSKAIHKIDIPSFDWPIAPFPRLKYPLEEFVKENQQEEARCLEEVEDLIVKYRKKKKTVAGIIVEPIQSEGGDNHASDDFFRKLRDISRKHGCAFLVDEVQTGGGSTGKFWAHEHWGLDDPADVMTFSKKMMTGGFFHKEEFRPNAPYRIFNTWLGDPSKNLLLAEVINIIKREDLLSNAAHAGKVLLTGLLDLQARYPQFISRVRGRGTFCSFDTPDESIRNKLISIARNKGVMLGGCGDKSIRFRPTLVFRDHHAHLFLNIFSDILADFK

Compound: N[C@H]1C=C(C(=O)O)SC1 [(S)-4-Amino-4,5-dihydro-2-thiophenecarboxylic acid]
inactivation of GABA-AT (in words) [1]: known inactivator
inactivation of aspartate aminotransferase (in words) [2]: inactivator

Compound: N[C@H]1C[C@@H](C(=O)O)CC1=C(F)F [Compound 16]
inactivation or inhibition of alanine aminotransferase [3]: did not inactivate or inhibit
inactivation or inhibition of aspartate aminotransferase [2]: did not inactivate or inhibit
margin of safety ([4]; compared with vigabatrin): much larger margin of safety than vigabatrin
doses that suppressed spasms ([4]; rat): 0.1 to 1 mg/kg/day
effective doses lower than those for vigabatrin ([4]; rat): > 100 fold
time spasms suppression stayed effective ([4]; rat): 3 days

Compound: Cl.N[C@@H]1CS[C@H](C(=O)O)C1 [Compound 17, (2S,4S)-4-Aminotetrahydrothiophene-2-carboxylic acid hydrochloride]
inactivation of GABA-AT (in words) [5]: potent inactivators

Compound: Cl.N[C@@H]1CS[C@@H](C(=O)O)C1 [Compound 18, (2R,4S)-4-Aminotetrahydrothiophene-2-carboxylic acid hydrochloride]
inactivation of GABA-AT (in words) [5]: potent inactivators

Compound: N[C@H]1CC(C(=O)O)S(=O)(=O)C1 (stereo partly drawn) [Compound 19, (4S)-4-Aminotetrahydrothiophene-2-carboxylic acid 1,1-dioxide hydrochloride]
Ki ([6]; reversible inhibition, pH 8.5, 25 °C, 10 mM GABA): 3.2 ± 0.7 mM

inactivation of GABA-AT (in words) [5]: not an inactivator
reversible inhibition of GABA-AT (in words) ([6]; preliminary in vitro results): good competitive inhibitor
Compound: N[C@@H]1CC[C@H](C(=O)O)C1 [Compound 39, (1S,3R)-3-aminocyclopentane-1-carboxylic acid]

Compound: C=CC(N)CCC(=O)O (centres unmarked) [vigabatrin]
time spasms suppression stayed effective ([4]; rat): 1 days
